Measured values as given in the kinase profiling compilation of Christmann-Franck et al. (2016).

Columns and labels:
Assay in all cases: radiometric filter-binding kinase assay, Kinase HotSpot
Conditions in all cases: compound 0.5 µM; ATP 10 µM
AKT2 (human) = AKT2 (human) (UniProt P31751)
AKT3 (human) = AKT3 (human) (UniProt Q9Y243)
CDK3 CCNE1 (human) = CDK3 CCNE1 (human) (UniProt Q00526+P24864)
CDK5 CDK5R1 p25 (human) = CDK5 CDK5R1 p25 (human) (UniProt Q00535+Q15078)
CDK7 CCNH MNAT1 (human) = CDK7 CCNH MNAT1 (human) (UniProt P50613+P51948+P51946)
CDK9 CCNT1 (human) = CDK9 CCNT1 (human) (UniProt P50750+O60563)
CSF1R (human) = CSF1R (human) (UniProt P07333)
EPHA5 (human) = EPHA5 (human) (UniProt P54756)
EPHB1 (human) = EPHB1 (human) (UniProt P54762)
EPHB3 (human) = EPHB3 (human) (UniProt P54753)
FGFR3 (human) = FGFR3 (human) (UniProt P22607)
GRK6 (human) = GRK6 (human) (UniProt P43250)
GRK7 (human) = GRK7 (human) (UniProt Q8WTQ7)
GSK3A (human) = GSK3A (human) (UniProt P49840)
HIPK2 (human) = HIPK2 (human) (UniProt Q9H2X6)
MAP3K10 (human) = MAP3K10 (human) (UniProt Q02779)
MAP3K11 (human) = MAP3K11 (human) (UniProt Q16584)
MAP3K3 (human) = MAP3K3 (human) (UniProt Q99759)
MAP3K5 (human) = MAP3K5 (human) (UniProt Q99683)
MAP4K5 (human) = MAP4K5 (human) (UniProt Q9Y4K4)
MAPK8 (human) = MAPK8 (human) (UniProt P45983)
MARK2 (human) = MARK2 (human) (UniProt Q7KZI7)
MET (human) = MET (human) (UniProt P08581)
MINK1 (human) = MINK1 (human) (UniProt Q8N4C8)
MUSK (human) = MUSK (human) (UniProt O15146)
NEK6 (human) = NEK6 (human) (UniProt Q9HC98)
NLK (human) = NLK (human) (UniProt Q9UBE8)
NUAK1 (human) = NUAK1 (human) (UniProt O60285)
PKN1 (human) = PKN1 (human) (UniProt Q16512)
PLK2 (human) = PLK2 (human) (UniProt Q9NYY3)
PRKCD (human) = PRKCD (human) (UniProt Q05655)
PRKG2 (human) = PRKG2 (human) (UniProt Q13237)
ROCK2 (human) = ROCK2 (human) (UniProt O75116)
ROS1 (human) = ROS1 (human) (UniProt P08922)
RPS6KA2 KD1 KD2 (human) = RPS6KA2 KD1 KD2 (human) (UniProt Q15349)
RPS6KA6 KD1 KD2 (human) = RPS6KA6 KD1 KD2 (human) (UniProt Q9UK32)
RPS6KB1 (human) = RPS6KB1 (human) (UniProt P23443)
SRPK1 (human) = SRPK1 (human) (UniProt Q96SB4)
TEC (human) = TEC (human) (UniProt P42680)
TSSK2 (human) = TSSK2 (human) (UniProt Q96PF2)
CAMK1G (human) = CAMK1G (human) (UniProt Q96NX5)

Sequence of RPS6KA6 KD1 KD2 (human) (Q9UK32 whole entry, looked up): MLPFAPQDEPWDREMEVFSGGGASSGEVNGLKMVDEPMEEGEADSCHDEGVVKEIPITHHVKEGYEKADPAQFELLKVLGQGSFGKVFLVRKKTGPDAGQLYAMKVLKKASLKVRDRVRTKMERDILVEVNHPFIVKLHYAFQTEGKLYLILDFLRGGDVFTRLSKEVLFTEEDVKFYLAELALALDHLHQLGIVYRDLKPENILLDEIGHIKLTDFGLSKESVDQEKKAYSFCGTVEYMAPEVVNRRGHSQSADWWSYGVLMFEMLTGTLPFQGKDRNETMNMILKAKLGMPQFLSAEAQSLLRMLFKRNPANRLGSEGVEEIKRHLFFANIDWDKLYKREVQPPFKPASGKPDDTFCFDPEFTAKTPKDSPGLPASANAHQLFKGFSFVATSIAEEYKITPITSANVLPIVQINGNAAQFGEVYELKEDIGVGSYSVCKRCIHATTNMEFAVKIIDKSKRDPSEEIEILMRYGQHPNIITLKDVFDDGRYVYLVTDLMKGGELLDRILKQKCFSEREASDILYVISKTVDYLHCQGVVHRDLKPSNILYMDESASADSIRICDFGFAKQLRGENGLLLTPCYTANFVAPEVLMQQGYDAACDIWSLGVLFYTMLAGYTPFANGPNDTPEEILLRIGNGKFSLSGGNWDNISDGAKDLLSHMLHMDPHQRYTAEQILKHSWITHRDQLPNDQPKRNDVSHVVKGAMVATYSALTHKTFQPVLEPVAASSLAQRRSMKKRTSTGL
Sequence of CSF1R (human) (P07333 whole entry, looked up): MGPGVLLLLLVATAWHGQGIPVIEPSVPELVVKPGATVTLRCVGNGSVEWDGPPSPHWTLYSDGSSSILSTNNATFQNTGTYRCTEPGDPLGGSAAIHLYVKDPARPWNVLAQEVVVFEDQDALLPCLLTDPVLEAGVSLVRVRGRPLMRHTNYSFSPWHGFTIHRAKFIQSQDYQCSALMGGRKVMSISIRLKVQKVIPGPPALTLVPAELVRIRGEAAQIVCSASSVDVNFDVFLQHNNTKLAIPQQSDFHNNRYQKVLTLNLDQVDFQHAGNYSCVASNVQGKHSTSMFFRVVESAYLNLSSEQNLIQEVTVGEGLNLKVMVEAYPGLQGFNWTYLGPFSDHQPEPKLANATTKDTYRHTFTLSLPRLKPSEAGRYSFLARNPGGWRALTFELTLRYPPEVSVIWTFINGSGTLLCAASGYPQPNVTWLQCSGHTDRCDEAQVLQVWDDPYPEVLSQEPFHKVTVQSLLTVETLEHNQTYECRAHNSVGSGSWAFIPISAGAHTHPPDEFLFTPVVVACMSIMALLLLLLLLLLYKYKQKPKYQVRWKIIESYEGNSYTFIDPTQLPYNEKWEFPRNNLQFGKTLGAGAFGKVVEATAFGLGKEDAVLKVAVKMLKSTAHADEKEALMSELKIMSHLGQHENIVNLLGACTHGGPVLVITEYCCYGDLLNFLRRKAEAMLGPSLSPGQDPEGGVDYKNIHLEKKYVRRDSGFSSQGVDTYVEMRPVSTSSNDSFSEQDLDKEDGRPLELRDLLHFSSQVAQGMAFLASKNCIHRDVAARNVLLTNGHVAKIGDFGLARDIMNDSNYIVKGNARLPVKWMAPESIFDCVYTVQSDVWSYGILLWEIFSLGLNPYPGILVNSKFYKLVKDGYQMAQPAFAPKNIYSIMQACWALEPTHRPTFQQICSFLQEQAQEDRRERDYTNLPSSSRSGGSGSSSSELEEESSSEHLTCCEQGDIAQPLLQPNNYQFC
Sequence of GRK7 (human) (Q8WTQ7 whole entry, looked up): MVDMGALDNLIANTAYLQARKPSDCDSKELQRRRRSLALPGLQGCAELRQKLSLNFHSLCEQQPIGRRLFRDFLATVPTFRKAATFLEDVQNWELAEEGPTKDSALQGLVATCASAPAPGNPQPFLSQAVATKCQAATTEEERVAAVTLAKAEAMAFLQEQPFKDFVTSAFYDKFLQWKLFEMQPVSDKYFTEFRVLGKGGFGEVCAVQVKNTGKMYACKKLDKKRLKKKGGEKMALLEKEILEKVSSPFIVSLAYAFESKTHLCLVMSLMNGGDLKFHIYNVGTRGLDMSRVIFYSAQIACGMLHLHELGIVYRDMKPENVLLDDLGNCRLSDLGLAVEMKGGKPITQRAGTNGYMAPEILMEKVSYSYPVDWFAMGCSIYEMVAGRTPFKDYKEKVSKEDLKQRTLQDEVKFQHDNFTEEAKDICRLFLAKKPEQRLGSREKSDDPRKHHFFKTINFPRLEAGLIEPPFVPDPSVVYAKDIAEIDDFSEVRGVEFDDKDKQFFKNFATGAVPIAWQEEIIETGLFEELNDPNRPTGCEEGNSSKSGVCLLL
Sequence of CDK9 CCNT1 (human) (O60563 whole entry, looked up): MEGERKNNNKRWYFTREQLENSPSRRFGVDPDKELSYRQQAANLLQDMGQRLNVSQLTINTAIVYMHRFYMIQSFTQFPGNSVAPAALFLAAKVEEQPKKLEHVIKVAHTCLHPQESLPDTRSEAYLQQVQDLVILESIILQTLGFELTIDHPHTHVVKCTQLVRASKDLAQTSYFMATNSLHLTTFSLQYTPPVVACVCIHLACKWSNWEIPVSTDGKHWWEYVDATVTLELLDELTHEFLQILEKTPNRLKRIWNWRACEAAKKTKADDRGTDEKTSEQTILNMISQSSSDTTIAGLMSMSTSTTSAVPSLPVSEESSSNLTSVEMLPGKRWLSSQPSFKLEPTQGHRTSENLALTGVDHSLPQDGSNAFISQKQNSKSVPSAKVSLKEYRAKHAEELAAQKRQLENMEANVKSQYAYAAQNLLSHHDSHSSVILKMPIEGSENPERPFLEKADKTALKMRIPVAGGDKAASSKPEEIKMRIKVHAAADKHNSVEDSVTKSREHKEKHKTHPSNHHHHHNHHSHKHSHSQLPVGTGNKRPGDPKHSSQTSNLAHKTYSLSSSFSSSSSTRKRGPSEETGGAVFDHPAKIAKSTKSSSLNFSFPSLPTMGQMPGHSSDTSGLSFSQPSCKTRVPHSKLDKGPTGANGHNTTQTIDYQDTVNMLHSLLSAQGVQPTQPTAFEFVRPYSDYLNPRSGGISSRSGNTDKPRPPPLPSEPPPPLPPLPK
Sequence of CDK9 CCNT1 (human) (P50750 whole entry, looked up): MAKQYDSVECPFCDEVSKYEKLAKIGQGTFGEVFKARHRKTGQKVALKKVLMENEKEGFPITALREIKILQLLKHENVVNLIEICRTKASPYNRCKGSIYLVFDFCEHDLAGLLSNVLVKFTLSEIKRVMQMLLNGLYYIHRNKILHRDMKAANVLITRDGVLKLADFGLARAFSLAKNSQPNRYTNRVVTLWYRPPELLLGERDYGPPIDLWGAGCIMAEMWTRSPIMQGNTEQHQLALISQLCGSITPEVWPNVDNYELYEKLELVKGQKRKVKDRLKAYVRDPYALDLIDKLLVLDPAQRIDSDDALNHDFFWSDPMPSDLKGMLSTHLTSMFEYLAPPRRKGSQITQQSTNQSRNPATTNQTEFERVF
Sequence of NUAK1 (human) (O60285 whole entry, looked up): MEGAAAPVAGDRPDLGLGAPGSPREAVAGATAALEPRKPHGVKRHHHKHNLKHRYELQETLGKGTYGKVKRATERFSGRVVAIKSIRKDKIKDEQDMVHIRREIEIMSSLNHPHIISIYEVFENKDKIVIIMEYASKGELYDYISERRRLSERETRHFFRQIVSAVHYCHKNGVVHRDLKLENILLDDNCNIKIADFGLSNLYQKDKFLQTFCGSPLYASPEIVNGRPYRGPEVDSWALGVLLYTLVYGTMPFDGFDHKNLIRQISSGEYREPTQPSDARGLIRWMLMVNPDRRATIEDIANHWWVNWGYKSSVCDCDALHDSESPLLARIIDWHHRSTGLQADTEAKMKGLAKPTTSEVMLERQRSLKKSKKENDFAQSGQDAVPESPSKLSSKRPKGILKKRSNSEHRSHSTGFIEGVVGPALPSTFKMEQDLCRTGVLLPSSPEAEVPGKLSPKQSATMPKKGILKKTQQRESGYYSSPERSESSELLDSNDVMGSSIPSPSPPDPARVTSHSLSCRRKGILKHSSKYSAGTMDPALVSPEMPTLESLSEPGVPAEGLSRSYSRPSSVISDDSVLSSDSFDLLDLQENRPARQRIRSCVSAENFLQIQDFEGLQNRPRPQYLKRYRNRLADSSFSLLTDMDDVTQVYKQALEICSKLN
Sequence of MUSK (human) (O15146 whole entry, looked up): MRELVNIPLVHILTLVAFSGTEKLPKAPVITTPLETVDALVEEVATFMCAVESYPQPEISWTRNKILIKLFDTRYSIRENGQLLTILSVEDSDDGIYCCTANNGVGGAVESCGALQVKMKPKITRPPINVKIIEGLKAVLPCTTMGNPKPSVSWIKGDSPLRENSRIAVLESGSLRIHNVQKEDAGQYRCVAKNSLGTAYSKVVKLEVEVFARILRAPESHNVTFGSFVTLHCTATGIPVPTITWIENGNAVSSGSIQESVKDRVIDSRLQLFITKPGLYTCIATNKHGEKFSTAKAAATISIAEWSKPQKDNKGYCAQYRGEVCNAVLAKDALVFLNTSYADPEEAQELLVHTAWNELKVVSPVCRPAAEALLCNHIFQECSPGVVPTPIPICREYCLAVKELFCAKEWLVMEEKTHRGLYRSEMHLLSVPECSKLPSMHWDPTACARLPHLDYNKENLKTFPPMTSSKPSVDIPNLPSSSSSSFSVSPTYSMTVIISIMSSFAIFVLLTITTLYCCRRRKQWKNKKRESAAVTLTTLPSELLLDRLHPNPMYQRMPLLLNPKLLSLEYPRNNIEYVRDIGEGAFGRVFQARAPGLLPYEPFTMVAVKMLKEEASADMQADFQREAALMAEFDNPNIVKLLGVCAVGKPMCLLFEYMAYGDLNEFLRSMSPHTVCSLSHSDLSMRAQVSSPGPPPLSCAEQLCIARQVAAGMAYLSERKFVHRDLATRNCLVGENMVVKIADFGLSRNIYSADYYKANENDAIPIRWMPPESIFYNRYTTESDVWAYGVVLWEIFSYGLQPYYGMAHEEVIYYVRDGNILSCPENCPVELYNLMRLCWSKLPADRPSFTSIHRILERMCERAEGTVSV

## O=C1Nc2ccccc2/C1=C\c1c(Cl)[nH]c2ccccc12
AKT2 (human)
  residual activity: 96.8%
AKT3 (human)
  residual activity: 93.6%
CDK3 CCNE1 (human)
  residual activity: 94.1%
CDK5 CDK5R1 p25 (human)
  residual activity: 86%
CDK7 CCNH MNAT1 (human)
  residual activity: 99.7%
CDK9 CCNT1 (human)
  residual activity: 98.4%
CSF1R (human)
  residual activity: 97.2%
EPHA5 (human)
  residual activity: 83.4%
EPHB1 (human)
  residual activity: 90.8%
EPHB3 (human)
  residual activity: 91.3%
FGFR3 (human)
  residual activity: 101%
GRK6 (human)
  residual activity: 107%
GRK7 (human)
  residual activity: 106%
GSK3A (human)
  residual activity: 99.3%
HIPK2 (human)
  residual activity: 96.5%
MAP3K10 (human)
  residual activity: 94.7%
MAP3K11 (human)
  residual activity: 100%
MAP3K3 (human)
  residual activity: 112%
MAP3K5 (human)
  residual activity: 107%
MAP4K5 (human)
  residual activity: 95%
MAPK8 (human)
  residual activity: 93.5%
MARK2 (human)
  residual activity: 94.7%
MET (human)
  residual activity: 109%
MINK1 (human)
  residual activity: 94.9%
MUSK (human)
  residual activity: 96.4%
NEK6 (human)
  residual activity: 96.5%
NLK (human)
  residual activity: 107%
NUAK1 (human)
  residual activity: 86%
PKN1 (human)
  residual activity: 94.6%
PLK2 (human)
  residual activity: 98.2%
PRKCD (human)
  residual activity: 88.4%
PRKG2 (human)
  residual activity: 71.7%
ROCK2 (human)
  residual activity: 90.2%
ROS1 (human)
  residual activity: 109%
RPS6KA2 KD1 KD2 (human)
  residual activity: 81.1%
RPS6KA6 KD1 KD2 (human)
  residual activity: 91.2%
RPS6KB1 (human)
  residual activity: 99.7%
SRPK1 (human)
  residual activity: 94.2%
TEC (human)
  residual activity: 124%
TSSK2 (human)
  residual activity: 113%

## CSc1nc(-c2ccc(F)cc2)c(-c2ccnc(NC(C)c3ccccc3)c2)[nH]1 (stereo unspecified)
AKT2 (human)
  residual activity: 96.8%
AKT3 (human)
  residual activity: 91.5%
CAMK1G (human)
  residual activity: 98.3%
CDK3 CCNE1 (human)
  residual activity: 85.3%
CDK5 CDK5R1 p25 (human)
  residual activity: 76.1%
CDK7 CCNH MNAT1 (human)
  residual activity: 97.2%
CDK9 CCNT1 (human)
  residual activity: 99.1%
CSF1R (human)
  residual activity: 104%
EPHA5 (human)
  residual activity: 106%
EPHB1 (human)
  residual activity: 96.4%
EPHB3 (human)
  residual activity: 94%
FGFR3 (human)
  residual activity: 83.7%
GRK6 (human)
  residual activity: 79.8%
GRK7 (human)
  residual activity: 100%
GSK3A (human)
  residual activity: 94.1%
HIPK2 (human)
  residual activity: 99.9%
MAP3K10 (human)
  residual activity: 90.6%
MAP3K11 (human)
  residual activity: 101%
MAP3K3 (human)
  residual activity: 80%
MAP3K5 (human)
  residual activity: 106%
MAP4K5 (human)
  residual activity: 85.6%
MAPK8 (human)
  residual activity: 86.3%
MARK2 (human)
  residual activity: 90.7%
MET (human)
  residual activity: 116%
MINK1 (human)
  residual activity: 89.6%
MUSK (human)
  residual activity: 101%
NEK6 (human)
  residual activity: 106%
NLK (human)
  residual activity: 30.7%
NUAK1 (human)
  residual activity: 94.3%
PKN1 (human)
  residual activity: 105%
PLK2 (human)
  residual activity: 94.3%
PRKCD (human)
  residual activity: 89.1%
PRKG2 (human)
  residual activity: 102%
ROCK2 (human)
  residual activity: 95.3%
ROS1 (human)
  residual activity: 99.1%
RPS6KA2 KD1 KD2 (human)
  residual activity: 94.3%
RPS6KA6 KD1 KD2 (human)
  residual activity: 93.1%
RPS6KB1 (human)
  residual activity: 91.2%
SRPK1 (human)
  residual activity: 106%
TEC (human)
  residual activity: 120%
TSSK2 (human)
  residual activity: 78.2%
